According to PubChem BioAssay (NCI):
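Interpolation was linear, between the two tested concentrations surrounding the appropriate level; five concentrations were tested over 48 hours in 96-well plates. The concentration for 50% growth inhibition is given as GI50. Definition used: TGI = concentration required for complete inhibition of growth.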

Test system: SF-539 CNS
Assay: NCI tumour cell line growth inhibition, 48 h

SMILES	GI50	TGI
CCc1ccc2c(c1)C(=O)c1c-2n(CCCBr)c(=O)c2cc([N+](=O)[O-])ccc12	28.4 µM	> 50 µM

Test system: SK-MEL-2 melanoma
Assay: NCI tumour cell line growth inhibition, 48 h

SMILES	TGI	GI50
O=C(Nc1ccccc1)OCCN=C1c2ccccc2C(Br)C(Br)c2ccccc21 (stereo unspecified)	> 31.6 µM	–
COc1cc(/C=C/c2cc(/C=C/c3ccc(O)c(OC)c3)n(C(=O)Nc3ccc(F)cc3)n2)ccc1O	3.32 µM	0.515 µM
CCc1ccc2c(c1)C(=O)c1c-2n(CCCBr)c(=O)c2cc([N+](=O)[O-])ccc12	> 50 µM	31.9 µM
Nn1c(CCCCCCCCc2nnc(COc3ccc(Cl)cc3Cl)n2N)nnc1COc1ccc(Cl)cc1Cl	> 100 µM	–

Test system: SK-MEL-28 melanoma
Assay: NCI tumour cell line growth inhibition, 48 h

SMILES	TGI	GI50
O=C(Nc1ccccc1)OCCN=C1c2ccccc2C(Br)C(Br)c2ccccc21 (stereo unspecified)	16.1 µM	–
COc1cc2c(cc1OC)[C@@H]1[C@H](C#N)C(=O)C(C)(C)N1CC2	> 100 µM	–
COc1cc(/C=C/c2cc(/C=C/c3ccc(O)c(OC)c3)n(C(=O)Nc3ccc(F)cc3)n2)ccc1O	7.84 µM	0.912 µM
CCc1ccc2c(c1)C(=O)c1c-2n(CCCBr)c(=O)c2cc([N+](=O)[O-])ccc12	> 50 µM	> 50 µM
Nn1c(CCCCCCCCc2nnc(COc3ccc(Cl)cc3Cl)n2N)nnc1COc1ccc(Cl)cc1Cl	> 100 µM	–

Test system: SK-MEL-5 melanoma
Assay: NCI tumour cell line growth inhibition, 48 h

SMILES	TGI	GI50
O=C(Nc1ccccc1)OCCN=C1c2ccccc2C(Br)C(Br)c2ccccc21 (stereo unspecified)	16.9 µM	–
COc1cc2c(cc1OC)[C@@H]1[C@H](C#N)C(=O)C(C)(C)N1CC2	> 100 µM	–
COc1cc(/C=C/c2cc(/C=C/c3ccc(O)c(OC)c3)n(C(=O)Nc3ccc(F)cc3)n2)ccc1O	3.25 µM	0.418 µM
CCc1ccc2c(c1)C(=O)c1c-2n(CCCBr)c(=O)c2cc([N+](=O)[O-])ccc12	> 50 µM	> 50 µM
Nn1c(CCCCCCCCc2nnc(COc3ccc(Cl)cc3Cl)n2N)nnc1COc1ccc(Cl)cc1Cl	> 100 µM	–

Test system: SK-OV-3 ovarian
Assay: NCI tumour cell line growth inhibition, 48 h

SMILES	TGI	GI50
O=C(Nc1ccccc1)OCCN=C1c2ccccc2C(Br)C(Br)c2ccccc21 (stereo unspecified)	22.5 µM	–
COc1cc2c(cc1OC)[C@@H]1[C@H](C#N)C(=O)C(C)(C)N1CC2	> 100 µM	–
COc1cc(/C=C/c2cc(/C=C/c3ccc(O)c(OC)c3)n(C(=O)Nc3ccc(F)cc3)n2)ccc1O	4.33 µM	1.04 µM

Test system: SN12C renal
Assay: NCI tumour cell line growth inhibition, 48 h

SMILES	TGI	GI50
O=C(Nc1ccccc1)OCCN=C1c2ccccc2C(Br)C(Br)c2ccccc21 (stereo unspecified)	17.5 µM	–
COc1cc2c(cc1OC)[C@@H]1[C@H](C#N)C(=O)C(C)(C)N1CC2	> 100 µM	–
COc1cc(/C=C/c2cc(/C=C/c3ccc(O)c(OC)c3)n(C(=O)Nc3ccc(F)cc3)n2)ccc1O	34.1 µM	0.953 µM
CCc1ccc2c(c1)C(=O)c1c-2n(CCCBr)c(=O)c2cc([N+](=O)[O-])ccc12	> 50 µM	> 50 µM
Nn1c(CCCCCCCCc2nnc(COc3ccc(Cl)cc3Cl)n2N)nnc1COc1ccc(Cl)cc1Cl	> 100 µM	–

Test system: SNB-19 CNS
Assay: NCI tumour cell line growth inhibition, 48 h

SMILES	TGI	GI50
O=C(Nc1ccccc1)OCCN=C1c2ccccc2C(Br)C(Br)c2ccccc21 (stereo unspecified)	27 µM	–
COc1cc2c(cc1OC)[C@@H]1[C@H](C#N)C(=O)C(C)(C)N1CC2	> 100 µM	–
COc1cc(/C=C/c2cc(/C=C/c3ccc(O)c(OC)c3)n(C(=O)Nc3ccc(F)cc3)n2)ccc1O	22.7 µM	1.23 µM
CCc1ccc2c(c1)C(=O)c1c-2n(CCCBr)c(=O)c2cc([N+](=O)[O-])ccc12	> 50 µM	30.8 µM
Nn1c(CCCCCCCCc2nnc(COc3ccc(Cl)cc3Cl)n2N)nnc1COc1ccc(Cl)cc1Cl	> 100 µM	–

Test system: SNB-75 CNS
Assay: NCI tumour cell line growth inhibition, 48 h

SMILES	TGI	GI50
O=C(Nc1ccccc1)OCCN=C1c2ccccc2C(Br)C(Br)c2ccccc21 (stereo unspecified)	26.5 µM	–
COc1cc(/C=C/c2cc(/C=C/c3ccc(O)c(OC)c3)n(C(=O)Nc3ccc(F)cc3)n2)ccc1O	9.48 µM	0.551 µM
CCc1ccc2c(c1)C(=O)c1c-2n(CCCBr)c(=O)c2cc([N+](=O)[O-])ccc12	19.9 µM	7.88 µM

Test system: SR leukemia
Assay: NCI tumour cell line growth inhibition, 48 h

SMILES	TGI	GI50
O=C(Nc1ccccc1)OCCN=C1c2ccccc2C(Br)C(Br)c2ccccc21 (stereo unspecified)	7.08 µM	–
COc1cc2c(cc1OC)[C@@H]1[C@H](C#N)C(=O)C(C)(C)N1CC2	> 100 µM	–
COc1cc(/C=C/c2cc(/C=C/c3ccc(O)c(OC)c3)n(C(=O)Nc3ccc(F)cc3)n2)ccc1O	–	0.278 µM
CCc1ccc2c(c1)C(=O)c1c-2n(CCCBr)c(=O)c2cc([N+](=O)[O-])ccc12	> 50 µM	19.1 µM

Test system: SW-620 colon
Assay: NCI tumour cell line growth inhibition, 48 h

SMILES	TGI	GI50
O=C(Nc1ccccc1)OCCN=C1c2ccccc2C(Br)C(Br)c2ccccc21 (stereo unspecified)	16.3 µM	–
COc1cc2c(cc1OC)[C@@H]1[C@H](C#N)C(=O)C(C)(C)N1CC2	> 100 µM	–
COc1cc(/C=C/c2cc(/C=C/c3ccc(O)c(OC)c3)n(C(=O)Nc3ccc(F)cc3)n2)ccc1O	10.6 µM	0.504 µM
CCc1ccc2c(c1)C(=O)c1c-2n(CCCBr)c(=O)c2cc([N+](=O)[O-])ccc12	> 50 µM	> 50 µM
Nn1c(CCCCCCCCc2nnc(COc3ccc(Cl)cc3Cl)n2N)nnc1COc1ccc(Cl)cc1Cl	> 100 µM	–

Test system: T-47D breast
Assay: NCI tumour cell line growth inhibition, 48 h

SMILES	GI50	TGI
COc1cc(/C=C/c2cc(/C=C/c3ccc(O)c(OC)c3)n(C(=O)Nc3ccc(F)cc3)n2)ccc1O	2.4 µM	9.99 µM
CCc1ccc2c(c1)C(=O)c1c-2n(CCCBr)c(=O)c2cc([N+](=O)[O-])ccc12	> 50 µM	> 50 µM

Test system: TK-10 renal
Assay: NCI tumour cell line growth inhibition, 48 h

SMILES	TGI	GI50
O=C(Nc1ccccc1)OCCN=C1c2ccccc2C(Br)C(Br)c2ccccc21 (stereo unspecified)	18.5 µM	–
COc1cc2c(cc1OC)[C@@H]1[C@H](C#N)C(=O)C(C)(C)N1CC2	> 100 µM	–
COc1cc(/C=C/c2cc(/C=C/c3ccc(O)c(OC)c3)n(C(=O)Nc3ccc(F)cc3)n2)ccc1O	19.2 µM	3.43 µM
CCc1ccc2c(c1)C(=O)c1c-2n(CCCBr)c(=O)c2cc([N+](=O)[O-])ccc12	> 50 µM	15 µM
Nn1c(CCCCCCCCc2nnc(COc3ccc(Cl)cc3Cl)n2N)nnc1COc1ccc(Cl)cc1Cl	> 100 µM	–

Test system: U251 CNS
Assay: NCI tumour cell line growth inhibition, 48 h

SMILES	TGI	GI50
O=C(Nc1ccccc1)OCCN=C1c2ccccc2C(Br)C(Br)c2ccccc21 (stereo unspecified)	16.5 µM	–
COc1cc2c(cc1OC)[C@@H]1[C@H](C#N)C(=O)C(C)(C)N1CC2	> 100 µM	–
COc1cc(/C=C/c2cc(/C=C/c3ccc(O)c(OC)c3)n(C(=O)Nc3ccc(F)cc3)n2)ccc1O	10.5 µM	0.769 µM
CCc1ccc2c(c1)C(=O)c1c-2n(CCCBr)c(=O)c2cc([N+](=O)[O-])ccc12	> 50 µM	26 µM
Nn1c(CCCCCCCCc2nnc(COc3ccc(Cl)cc3Cl)n2N)nnc1COc1ccc(Cl)cc1Cl	> 100 µM	–

Test system: UACC-257 melanoma
Assay: NCI tumour cell line growth inhibition, 48 h

SMILES	TGI	GI50
O=C(Nc1ccccc1)OCCN=C1c2ccccc2C(Br)C(Br)c2ccccc21 (stereo unspecified)	15.6 µM	–
COc1cc2c(cc1OC)[C@@H]1[C@H](C#N)C(=O)C(C)(C)N1CC2	> 100 µM	–
COc1cc(/C=C/c2cc(/C=C/c3ccc(O)c(OC)c3)n(C(=O)Nc3ccc(F)cc3)n2)ccc1O	9.12 µM	2.17 µM
CCc1ccc2c(c1)C(=O)c1c-2n(CCCBr)c(=O)c2cc([N+](=O)[O-])ccc12	> 50 µM	> 50 µM
Nn1c(CCCCCCCCc2nnc(COc3ccc(Cl)cc3Cl)n2N)nnc1COc1ccc(Cl)cc1Cl	> 100 µM	–

Test system: UACC-62 melanoma
Assay: NCI tumour cell line growth inhibition, 48 h

SMILES	TGI	GI50
O=C(Nc1ccccc1)OCCN=C1c2ccccc2C(Br)C(Br)c2ccccc21 (stereo unspecified)	17.6 µM	–
COc1cc2c(cc1OC)[C@@H]1[C@H](C#N)C(=O)C(C)(C)N1CC2	> 100 µM	–
COc1cc(/C=C/c2cc(/C=C/c3ccc(O)c(OC)c3)n(C(=O)Nc3ccc(F)cc3)n2)ccc1O	6.68 µM	0.817 µM
CCc1ccc2c(c1)C(=O)c1c-2n(CCCBr)c(=O)c2cc([N+](=O)[O-])ccc12	> 50 µM	32.2 µM
Nn1c(CCCCCCCCc2nnc(COc3ccc(Cl)cc3Cl)n2N)nnc1COc1ccc(Cl)cc1Cl	> 100 µM	–

Test system: UO-31 renal
Assay: NCI tumour cell line growth inhibition, 48 h

SMILES	TGI	GI50
O=C(Nc1ccccc1)OCCN=C1c2ccccc2C(Br)C(Br)c2ccccc21 (stereo unspecified)	3.61 µM	–
COc1cc2c(cc1OC)[C@@H]1[C@H](C#N)C(=O)C(C)(C)N1CC2	> 100 µM	–
COc1cc(/C=C/c2cc(/C=C/c3ccc(O)c(OC)c3)n(C(=O)Nc3ccc(F)cc3)n2)ccc1O	6.27 µM	0.587 µM
CCc1ccc2c(c1)C(=O)c1c-2n(CCCBr)c(=O)c2cc([N+](=O)[O-])ccc12	> 50 µM	> 50 µM
Nn1c(CCCCCCCCc2nnc(COc3ccc(Cl)cc3Cl)n2N)nnc1COc1ccc(Cl)cc1Cl	> 100 µM	–
